Test [1] deals with Serine/threonine-protein kinase pim-1 (Homo sapiens, UniProt P11309). The experiment in a line: Inhibition of human recombinant Pim1 using RSRHSSYPAGT as substrate and 30 uM ATP by radiometric assay.
The target of test [2] is T1, Receptor-type tyrosine-protein kinase FLT3 (Homo sapiens, UniProt P36888).
T1 sequence (P36888 whole entry): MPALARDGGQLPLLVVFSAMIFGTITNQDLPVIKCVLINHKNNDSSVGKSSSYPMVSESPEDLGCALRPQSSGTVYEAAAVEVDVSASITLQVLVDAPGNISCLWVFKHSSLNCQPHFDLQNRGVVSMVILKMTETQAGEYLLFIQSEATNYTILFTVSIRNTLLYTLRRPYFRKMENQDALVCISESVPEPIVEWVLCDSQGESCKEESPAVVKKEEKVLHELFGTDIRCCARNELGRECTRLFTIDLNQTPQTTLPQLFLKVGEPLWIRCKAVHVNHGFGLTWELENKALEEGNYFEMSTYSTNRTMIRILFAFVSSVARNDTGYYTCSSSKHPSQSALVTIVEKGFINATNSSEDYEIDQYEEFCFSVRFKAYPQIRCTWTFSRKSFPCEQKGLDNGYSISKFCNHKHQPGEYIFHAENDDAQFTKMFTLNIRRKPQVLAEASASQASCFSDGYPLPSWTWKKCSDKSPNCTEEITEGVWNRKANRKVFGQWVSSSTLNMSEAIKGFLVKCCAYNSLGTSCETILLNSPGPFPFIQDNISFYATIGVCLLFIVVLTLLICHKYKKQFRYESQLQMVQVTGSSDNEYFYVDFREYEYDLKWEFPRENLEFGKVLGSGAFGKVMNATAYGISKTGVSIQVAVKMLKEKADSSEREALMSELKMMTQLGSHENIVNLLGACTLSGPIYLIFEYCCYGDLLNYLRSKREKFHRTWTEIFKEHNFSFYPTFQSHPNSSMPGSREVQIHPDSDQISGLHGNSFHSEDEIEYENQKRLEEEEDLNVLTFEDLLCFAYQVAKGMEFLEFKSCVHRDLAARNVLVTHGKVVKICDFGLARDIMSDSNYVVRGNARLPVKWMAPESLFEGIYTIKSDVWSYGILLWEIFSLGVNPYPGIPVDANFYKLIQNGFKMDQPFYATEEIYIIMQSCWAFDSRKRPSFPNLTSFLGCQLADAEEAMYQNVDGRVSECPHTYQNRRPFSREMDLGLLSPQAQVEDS
The experiment in a line: Inhibition of Flt3.

The target in test [3] is Serine/threonine-protein kinase pim-2 (Homo sapiens, UniProt Q9P1W9). The experiment in a line: Inhibition of human recombinant Pim2 using RSRHSSYPAGT as substrate and 5 uM ATP by radiometric assay.
Sequence of Serine/threonine-protein kinase pim-2 (Q9P1W9 whole entry): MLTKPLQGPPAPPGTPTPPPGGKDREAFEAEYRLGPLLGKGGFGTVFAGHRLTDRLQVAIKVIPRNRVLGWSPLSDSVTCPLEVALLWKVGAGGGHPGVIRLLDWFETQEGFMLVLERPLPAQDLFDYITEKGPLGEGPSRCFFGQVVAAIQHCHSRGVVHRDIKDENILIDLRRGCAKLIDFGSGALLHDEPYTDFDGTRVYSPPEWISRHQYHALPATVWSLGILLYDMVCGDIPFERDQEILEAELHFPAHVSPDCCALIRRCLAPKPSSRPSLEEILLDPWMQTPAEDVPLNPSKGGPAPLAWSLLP
The target in test [4] is Casein kinase II alpha/beta (Homo sapiens, UniProt P68400). It counts as protein-complex assay.
Sequence of Casein kinase II alpha/beta (P67870 whole entry): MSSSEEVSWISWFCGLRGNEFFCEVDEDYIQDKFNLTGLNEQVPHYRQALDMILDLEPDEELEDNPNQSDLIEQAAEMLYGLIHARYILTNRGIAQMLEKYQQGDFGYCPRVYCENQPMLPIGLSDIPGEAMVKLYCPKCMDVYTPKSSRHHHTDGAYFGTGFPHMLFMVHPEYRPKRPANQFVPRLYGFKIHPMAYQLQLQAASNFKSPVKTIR
Sequence of Casein kinase II alpha/beta (P68400 whole entry): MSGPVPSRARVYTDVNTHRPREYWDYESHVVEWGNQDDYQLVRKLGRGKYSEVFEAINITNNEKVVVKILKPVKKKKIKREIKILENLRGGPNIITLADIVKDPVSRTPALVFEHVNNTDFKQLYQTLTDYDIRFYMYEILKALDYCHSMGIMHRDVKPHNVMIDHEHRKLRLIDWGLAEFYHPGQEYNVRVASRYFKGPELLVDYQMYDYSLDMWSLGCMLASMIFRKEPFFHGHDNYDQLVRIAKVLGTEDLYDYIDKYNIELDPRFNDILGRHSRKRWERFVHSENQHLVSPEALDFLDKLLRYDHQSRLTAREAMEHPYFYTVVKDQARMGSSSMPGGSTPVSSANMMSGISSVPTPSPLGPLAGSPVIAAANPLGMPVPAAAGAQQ
Test [5] concerns BXPC-3. As to the kind of experiment: Antiproliferative activity against human BxPC3 cells after 48 hrs by alamar blue assay. It counts as functional, cell-based. The conditions noted are these: BXPC-3, 48 h.
Test [6] can be described thus: Antiproliferative activity against human SUM149PT cells after 48 hrs by alamar blue assay. It counts as functional, cell-based.
Test [7] has as its system K562. The experiment in a line: Antiproliferative activity against human K562 cells after 48 hrs by alamar blue assay. It counts as functional, cell-based. The settings on record: K562, 48 h. (In general: Resazurin is reduced to fluorescent resorufin, in cell work by metabolically active cells.)
Test [8] relates to MV4-11. As to the kind of experiment: Antiproliferative activity against human MV411 cells after 48 hrs by alamar blue assay. The class given is functional, cell-based. The settings on record: MV4-11, 48 h.
Test [9] deals with MDA-MB-453 (Homo sapiens). As to the kind of experiment: Antiproliferative activity against human MDA-MB-453 cells after 48 hrs by alamar blue assay. The settings on record: MDA-MB-453, 48 h.

Eight compounds from ChEMBL document CHEMBL2016532, “Novel potent dual inhibitors of CK2 and Pim kinases with antiproliferative activity against cancer cells” (Bioorg Med Chem Lett, 2012) can be followed below.

Sequence of Serine/threonine-protein kinase pim-1 (P11309 whole entry): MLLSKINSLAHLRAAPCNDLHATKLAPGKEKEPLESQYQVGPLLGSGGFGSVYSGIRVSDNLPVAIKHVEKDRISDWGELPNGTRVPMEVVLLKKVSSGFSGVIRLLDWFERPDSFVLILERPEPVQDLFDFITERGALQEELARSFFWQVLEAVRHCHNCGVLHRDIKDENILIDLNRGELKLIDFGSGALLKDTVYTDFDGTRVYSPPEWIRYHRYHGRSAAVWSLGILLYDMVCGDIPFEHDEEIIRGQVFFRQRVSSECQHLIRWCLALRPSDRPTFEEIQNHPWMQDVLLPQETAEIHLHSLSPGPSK

`Clc1ccccc1Nc1nc2c(-c3nnc[nH]3)cccc2c2cscc12`: the IC50 was 0.007 µM in test [1], above 10 µM in [2], 0.008 µM in test [3] and 0.02 µM in test [4]. For the same compound, the EC50 in test [5] is 4.5 µM; in [6], 2.6 µM; in [7] it was above 10 µM; in test [8] it was 0.6 µM; in [9] it was 4.9 µM.

For the compound `Clc1ccccc1Nc1nc2c(-c3nnc[nH]3)cccc2n2cccc12`, the IC50 is 0.012 µM in [1], above 10 µM in test [2], 0.041 µM in [3] and 0.089 µM in [4].

Take `Clc1ccccc1Nc1nc2c(-c3nnc[nH]3)cccc2c2ccsc12`: the IC50 is 0.004 µM in test [1], above 10 µM in test [2], 0.006 µM in test [3] and 0.021 µM in [4]. Besides, the EC50 is 16.1 µM in [5]; 2.6 µM in test [6]; above 10 µM in [7]; 3.2 µM in [8]; 1.3 µM in [9].

On to `C#Cc1cccc(Nc2nc3c(-c4nnc[nH]4)cccc3c3sccc23)c1`, for which the IC50 in [1] is 0.006 µM; in test [3], 0.005 µM; in test [4], 0.002 µM. Also, the EC50 in [5] came out at 24.6 µM; in test [6] it was 9.6 µM; in [7], 6.7 µM; in test [8], 5.4 µM; in test [9], 9.3 µM.

For the compound `c1ccc(Nc2nc3c(-c4nnc[nH]4)cccc3c3sccc23)cc1`, the IC50 stood at 0.004 µM in test [1], 0.015 µM in test [3] and 0.01 µM in test [4]. The EC50 is above 30 µM in test [5]; 7 µM in [6]; 6.1 µM in test [7]; 2 µM in test [8]; 7.8 µM in test [9].

On to `Fc1ccc(Nc2nc3c(-c4nnc[nH]4)cccc3c3sccc23)cc1`, for which the IC50 in test [1] came to 0.004 µM; in test [3], 0.007 µM; in [4], 0.007 µM. The EC50 in [5] was above 30 µM; in test [6], above 30 µM; in test [7], above 10 µM; in [8] it was above 10 µM; in [9], 6.6 µM.

On to `CNC(=O)c1cccc2c1nc(Nc1ccccc1Cl)c1ccsc12`, for which the IC50 is 0.005 µM in [1], 5.3 µM in test [2], 0.028 µM in test [3] and 0.048 µM in [4].

For `Clc1ccccc1Nc1nc2c(-c3nnc[nH]3)cccc2c2sccc12`, the IC50 in test [1] is 0.003 µM; in test [2] it was above 10 µM; in test [3] it was 0.002 µM; in test [4], 0.009 µM. Also, the EC50 stood at 11.7 µM in test [5]; 4.4 µM in [6]; 3.6 µM in test [7]; 0.5 µM in test [8]; 2.6 µM in test [9].

The term IC50 denotes the midpoint of a concentration-inhibition curve. As a reminder, the EC50 is the concentration needed to bring the measured effect to its halfway point. Lower therefore signals higher potency in that assay.
